Experimental data taken from patent publication US9326518B2, “Synergistic combination of a chlorotoluron compound and OIT for dry film protection” (Dow Global Technologies LLC, priority 2013, dated 2016).

Assays:
Chlorella sp. ATCC 7516 = experiment: Algal efficacy testing of dry paint films (modified ASTM 5589, 6-well plates); type: cell-based; settings: 3 weeks; for % inhibition: at the Total conc, versus blank sample; for Total conc (concentration chosen as minimum inhibitory concentration, pass level ≧75% inhibition): total active ingredient in acrylic/silicone paint, dry film on filter paper
Protocol: (§1) Slurries containing 33% antimicrobial active ingredient (chlorotoluron) were post added to a white, acrylic/silicone based outdoor paint free of biocides to give a total active ingredient concentration of 10000 and 1000 ppm respectively. KATHON™ 893T (100% OIT) was post added to a white, acrylic/silicone based outdoor paint free of biocides to give a total active ingredient concentration of 10000 and 1000 ppm respectively. These paints were then diluted with an antimicrobial free acrylic/silicone based paint and mixed to prepare targeted concentrations of antimicrobial compounds for the testing. The total biocides concentrations tested were 125, 250, 500, 1000, 2000 and 5000 ppm. After biocides addition or dilution, the paints were mixed 90 seconds with the horse power shaker (AXEL 75M3372/Agitateur SO-10MI) until uniformity was achieved. Paints containing different antimicrobial compounds at the same levels were mixed together in order to obtain the desired ratio of antimicrobial compounds. After one day, the paints were applied to Schleicher & Schuell filter paper at 280 μm wet film thickness and dried for 3 days at room temperature avoiding direct exposure to sunlight. Square discs (1.6 cm×1.6 cm) were cut out from each panel and were used as the substrate for algal efficacy tests. This sample size allowed for an agar border when the sample disc was placed into the well of the test plate.
(§2) Algal efficacy was tested according to modified ASTM 5589 which is a standard accelerated test method for determining resistance of various coatings (including paints) to algal defacement. To accommodate for high-throughput screening, this method was scaled down from petri dishes to 6-well plates. Bold Modified Basal Freshwater Nutrient Solution was used as growth medium. A single coated filter paper coupon was placed with a pair of sterile forceps at the center of the agar plug (on top) with the painted surface facing upwards. Algal inoculums were prepared by mixing equal concentrations (1×10^6 cfu/ml) and equal volumes of exponentially growing algae cultures.
(§3) Each well that contains a tested coupon was inoculated with 1750 μl of algal suspensions (1×10^6 cfu/ml) making sure that the whole surface (paint film as well as the agar surrounding it) was evenly covered. The plates were incubated at room temp (21° C.-25° C.) with cyclic exposure to light and dark phases, for a period of three weeks. The total area inhibited was evaluated at the end of each week according to percent area covered in 5% increments
(§4) At the end of the three week incubation period, the samples were scored for percent inhibition regarding color intensity compared to the blank sample.
(§5) The Synergy Index calculation was performed as follows.
(§6) The SI is calculated based on F. C. Kull et.
(§7) SI value of <1 in the formula indicates a synergism of the blended biocides exists.
(§8) The minimal targeted inhibition was set at 75%, meaning a coupon with at least 75% algal growth inhibition was considered as a pass.

[1] = tested on: Stichococcus bacillaris SAG 379-1a / CCAP 379/1a; experiment: as above; type: cell-based; settings: 3 weeks; for % inhibition: at the Total conc, versus blank sample; for Total conc (concentration chosen as minimum inhibitory concentration, pass level ≧75% inhibition): total active ingredient in acrylic/silicone paint, dry film on filter paper
Protocol: as §1, §2, §3, §4, §5, §6, §7, §8

Row | SMILES | % inhibition (Chlorella sp. ATCC 7516) [%] | Total conc (concentration chosen as minimum inhibitory concentration, pass level ≧75% inhibition) (Chlorella sp. ATCC 7516) [ppm] | % inhibition [1] [%] | Total conc (concentration chosen as minimum inhibitory concentration, pass level ≧75% inhibition) [1] [ppm]
1 | CCCCCCCCn1sccc1=O [OIT, 2-n-octyl-4-isothiazolin-3-one] | 50 | 2000 | 60 | 2000
2 | Cc1ccc(NC(=O)N(C)C)cc1Cl [Chlorotoluron, N′-(3-chloro-4-methylphenyl)-N,N-dimethylurea] | 100 | 1000 | 90 | 500
